In patent US9505769B2 (ASCENEURON SA, priority 2013, dated 2016):
Where a name gives a salt, the structure may show the parent alone. Read-outs that look alike come from different tables or passages of the source.

Biological target: T1, human muscarinic acetylcholine M1 receptor (Homo sapiens, UniProt P11229)
T1 construct: expressed in transfected cells; host or cells: CHO-K1
T1 sequence (P11229 1-460): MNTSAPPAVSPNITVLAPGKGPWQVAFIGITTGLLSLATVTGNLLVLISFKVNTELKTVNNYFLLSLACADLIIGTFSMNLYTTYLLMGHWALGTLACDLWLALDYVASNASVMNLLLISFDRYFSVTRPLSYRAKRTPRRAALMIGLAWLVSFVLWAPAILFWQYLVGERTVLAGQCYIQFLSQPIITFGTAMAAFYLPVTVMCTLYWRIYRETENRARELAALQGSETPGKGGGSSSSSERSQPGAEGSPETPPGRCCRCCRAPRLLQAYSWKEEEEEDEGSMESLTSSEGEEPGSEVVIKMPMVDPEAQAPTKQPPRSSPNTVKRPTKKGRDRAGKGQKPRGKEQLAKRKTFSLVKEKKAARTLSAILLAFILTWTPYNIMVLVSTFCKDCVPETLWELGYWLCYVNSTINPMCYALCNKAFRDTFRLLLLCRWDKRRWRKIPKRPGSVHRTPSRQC
Experiment: M1 PAM Assay (IP-One HTRF, IP1 accumulation in M1-CHO cells)
Format: cell-based
Method: Then diluted compounds (0.6% DMSO final concentration) are added together with EC20 of acetylcholine and incubated with the cells for 30 min at 37° C., 5% CO2.
CHO-K1 cells stably transfected with human muscarinic acetylcholine M1 receptor are cultured in Ham's F12 medium containing 10% heat inactivated fetal calf serum, 2 mM L-glutamine and Penicillin-Streptomycin grown in a humidified atmosphere at 5% CO2/95% air at 37° C.

[1] = CHO-K1 cells stably transfected with human M1 receptor, compounds added with EC20 of acetylcholine (25 nM), 30 min, intracellular IP1 by IP-One HTRF, read-out: M1 PAM EC50

Row | Structure (SMILES) | EC50 [1] | EC50
1 | Cc1nc2c3c(nn2c(C)c1Cl)CN(C(=O)c1ccc(F)cc1O[C@H]1CCNC[C@@H]1F)C3 (racemic) [Example 1] | < 200 nM | –
2 | Cc1nc2c3c(nn2c(C)c1Cl)CN(C(=O)c1ccc(F)cc1O[C@H]1CCN(C)C[C@@H]1F)C3 (racemic) [Example 2, (anti)-(3-chloro-2,4-dimethyl-7H-pyrrolo[3′,4′:3,4]pyrazolo[1,5-a]pyrimidin-8(9H)-yl)(4-fluoro-2-((-3-fluoro-1-methylpiperidin-4-yl)oxy)phenyl)methanone] | 200 to 1000 nM | –
3 | Cc1nc2c3c(nn2c(C)c1Cl)CN(C(=O)c1ccccc1O[C@H]1CNC[C@@H]1O)C3 (racemic) [Example 4, (anti)-(6-Chloro-5,7-dimethyl-1H,3H-2,4,7a,8-tetraaza-cyclopenta[a]inden-2-yl)-[2-(4-hydroxy-pyrrolidin-3-yloxy)-phenyl]-methanone] | 200 to 1000 nM | –
4 | Cc1nc2c3c(nn2c(C)c1Cl)CN(C(=O)c1ccccc1O[C@H]1CCC[C@@H]1O)C3 (racemic) [Example 8, (anti)-(6-Chloro-5,7-dimethyl-1H,3H-2,4,7a,8-tetraaza-cyclopenta[a]inden-2-yl)-[2-(2-hydroxy-cyclopentyloxy)-phenyl]-methanone] | 200 to 1000 nM | –
5 | Cc1nc2c3c(nn2c(C)c1Cl)CN(C(=O)c1ccccc1O[C@H]1CN(C)C[C@@H]1O)C3 (racemic) [Example 13, (anti)-(6-Chloro-5,7-dimethyl-1H,3H-2,4,7a,8-tetraaza-cyclopenta[a]inden-2-yl)-[2-(4-hydroxy-1-methyl-pyrrolidin-3-yloxy)-phenyl]-methanone] | 1000 to 3000 nM | –
6 | Cc1nc2c3c(nn2c(C)c1Cl)CN(C(=O)c1ccccc1O[C@H]1CCCC[C@@H]1O)C3 (racemic) [Example 17, (anti)-(3-chloro-2,4-dimethyl-7H-pyrrolo[3′,4′:3,4]pyrazolo[1,5-a]pyrimidin-8(9H)-yl)(2-((2-hydroxycyclohexyl)oxy)phenyl)methanone] | 1000 to 3000 nM | –
7 | Cc1nc2c3c(nn2c(C)c1Cl)CN(C(=O)c1ccc(F)cc1O[C@H]1CCNC[C@H]1F)C3 (racemic) [Example 18] | 200 to 1000 nM | –
8 | Cc1nc2c3c(nn2c(C)c1Cl)CN(C(=O)c1ccccc1O[C@H]1COC[C@@H]1O)C3 (racemic) [Example 21, (anti)-(3-chloro-2,4-dimethyl-7H-pyrrolo[3′,4′:3,4]pyrazolo[1,5-a]pyrimidin-8(9H)-yl)(2-((4-hydroxytetrahydrofuran-3-yl)oxy)phenyl)methanone] | 1000 to 3000 nM | –
9 | Cc1nc2c3c(nn2c(C)c1Cl)CN(C(=O)c1ccccc1O[C@H]1CNC[C@H]1F)C3 (racemic) [Example 25, (syn)-(6-Chloro-5,7-dimethyl-1H,3H-2,4,7a,8-tetraaza-cyclopenta[a]inden-2-yl)-[2-(4-fluoro-pyrrolidin-3-yloxy)-phenyl]-methanone] | 200 to 1000 nM | –
10 | Cc1nc2c3c(nn2c(C)c1Cl)CN(C(=O)c1ccc(F)cc1O[C@H]1COC[C@@H]1O)C3 (racemic) [Example 26, (anti)-(3-chloro-2,4-dimethyl-7H-pyrrolo[3′,4′:3,4]pyrazolo[1,5-a]pyrimidin-8(9H)-yl)(4-fluoro-2-((4-hydroxytetrahydrofuran-3-yl)oxy)phenyl)methanone] | 1000 to 3000 nM | –
11 | Cc1nc2c3c(nn2c(C)c1Cl)CN(C(=O)c1ccc(F)cc1O[C@H]1CNC[C@@H]1O)C3 (racemic) [Example 27, (anti)-(6-Chloro-5,7-dimethyl-1H,3H-2,4,7a,8-tetraaza-cyclopenta[a]inden-2-yl)-[4-fluoro-2-(4-hydroxy-pyrrolidin-3-yloxy)-phenyl]-methanone] | 200 to 1000 nM | –
12 | Cc1nc2c3c(nn2c(C)c1Cl)CN(C(=O)c1ccc(F)cc1OC1CC2CC(F)C(C1)N2C)C3 (racemic) [Example 38, (3-chloro-2,4-dimethyl-7H-pyrrolo[3′,4′:3,4]pyrazolo[1,5-a]pyrimidin-8(9H)-yl)(4-fluoro-2-(((3-endo)-(6-endo)-6-fluoro-8-methyl-8-azabicyclo[3.2.1]octan-3-yl)oxy)phenyl)methanone] | – | < 200 nM
13 | Cc1nc2c3c(nn2c(C)c1Cl)CN(C(=O)c1ccc(F)cc1OC1CC2C[C@H](O)C(C1)N2C)C3 (mixture of isomers) [Example 39, (3-chloro-2,4-dimethyl-7H-pyrrolo[3′,4′:3,4]pyrazolo[1,5-a]pyrimidin-8(9H)-yl)(4-fluoro-2-(((3-endo)-(6-exo)-6-hydroxy-8-methyl-8-azabicyclo[3.2.1]octan-3-yl)oxy)phenyl)methanone] | – | < 200 nM
14 | Cc1nc2c3c(nn2c(C)c1Cl)CN(C(=O)c1ccc(F)cc1O[C@H]1CN(C)C[C@@H]1O)C3 (racemic) [Example 45, (anti)-(6-Chloro-5,7-dimethyl-1H,3H-2,4,7a,8-tetraaza-cyclopenta[a]inden-2-yl)-[4-fluoro-2-(4-hydroxy-1-methyl-pyrrolidin-3-yloxy)-phenyl]-methanone] | 200 to 1000 nM | –
15 | CN1C2CC(Oc3cc(F)ccc3C(=O)N3Cc4nn5cc(Cl)cnc5c4C3)CC1[C@@H](O)C2 (mixture of isomers) [Example 69, (3-chloro-7H-pyrrolo[3′,4′:3,4]pyrazolo[1,5-a]pyrimidin-8(9H)-yl)(4-fluoro-2-(((3-endo)-(6-exo)-6-hydroxy-8-methyl-8-azabicyclo[3.2.1]octan-3-yl)oxy)phenyl)methanone] | – | < 200 nM
16 | Cc1nc2c3c(nn2c(C)c1Cl)CN(C(=O)c1ccccc1O[C@H]1CCNC[C@@H]1O)C3 (single isomer, unassigned) [Example 5] | 200 to 1000 nM | –
17 | Cc1nc2c3c(nn2c(C)c1Cl)CN(C(=O)c1ccc(F)cc1O[C@H]1CC[C@H](O)CC1)C3 (single isomer, unassigned) [Example 41, (anti)-(6-Chloro-5,7-dimethyl-1H,3H-2,4,7a8-tetraaza-cyclopenta[a]inden-2-yl)-[4-fluoro-2-(4-hydroxy-cyclohexyloxy)-phenyl]-methanone] | < 200 nM | –
18 | Cc1nc2c3c(nn2c(C)c1Cl)CN(C(=O)c1ccc(F)cc1OCCN1CCC[C@H]1C)C3 (single isomer, unassigned) [Example 44] | 1000 to 3000 nM | –
19 | Cc1nc2c3c(nn2c(C)c1Cl)CN(C(=O)c1ccc(F)cc1O[C@H]1CC[C@@H](O)CC1)C3 (single isomer, unassigned) [Example 49, (syn)-(6-Chloro-5,7-dimethyl-1H,3H-2,4,7a,8-tetraaza-cvclopenta[a]inden-2-yl)-[4-fluoro-2-(4-hydroxy-cyclohexyloxy)-phenyl]-methanone] | 200 to 1000 nM | –
20 | O=C(c1ccc(F)cc1O[C@H]1C[C@H]2CC[C@@H](C1)N2CCO)N1Cc2nn3cc(Cl)cnc3c2C1 (single isomer, unassigned) [Example 50, (3-chloro-7H-pyrrolo[3′,4′:3,4]pyrazolo[1,5-a]pyrimidin-8(9H)-yl)(4-fluoro-2-{[(3-endo)-8-(2-hydroxyethyl)-8-azabicyclo[3.2.1]oct-3-yl]oxy}phenyl)methanone] | – | 200 to 1000 nM
21 | O=C(c1ccc(F)cc1O[C@H]1C[C@H]2CC[C@@H](C1)N2CCF)N1Cc2nn3cc(Cl)cnc3c2C1 (single isomer, unassigned) [Example 51, (3-chloro-7H-pyrrolo[3′,4′:3,4]pyrazolo[1,5-a]pyrimidin-8(9H)-yl)(4-fluoro-2-{[(3-endo)-8-(2-fluoroethyl)-8-azabicyclo[3.2.1]oct-3-yl]oxy}phenyl)methanone] | – | < 200 nM
22 | Cc1nc2c3c(nn2c(C)c1Cl)CN(C(=O)c1ccc(F)cc1O[C@H]1CCNC[C@@H]1O)C3 (single isomer, unassigned) [Example 70, (3-chloro-2,4-dimethyl-7H-pyrrolo[3′,4′:3,4]pyrazolo[1,5-a]pyrimidin-8(9H)-yl)(4-fluoro-2-(((3S,4S)-3-hydroxypiperidin-4-yl)oxy)phenyl)methanone hydrochloride or (3-chloro-2,4-dimethyl-7H-pyrrolo[3′,4′:3,4]pyrazolo[1,5-a]pyrimidin-8(9H)-yl)(4-fluoro-2-(((3R,4R)-3-hydroxypiperidin-4-yl)oxy)phenyl)methanone hydrochloride] | 200 to 1000 nM | –
23 | Cc1nc2c3c(nn2c(C)c1Cl)CN(C(=O)c1ccc(F)cc1O[C@@H]1CCN[C@@H](C)C1)C3 (stereo in doubt) [Example 24, (3-chloro-2,4-dimethyl-7H-pyrrolo[3′,4′:3,4]pyrazolo[1,5-a]pyrimidin-8(9H)-yl)(4-fluoro-2-((2-methylpiperidin-4-yl)oxy)phenyl)methanone hydrochloride] | 200 to 1000 nM | –
24 | Cc1nc2c3c(nn2c(C)c1Cl)CN(C(=O)c1ccc(F)cc1O[C@H]1CCN[C@@H](C)C1)C3 (stereo in doubt) [Example 48, (3-chloro-2,4-dimethyl-7H-pyrrolo[3′,4′:3,4]pyrazolo[1,5-a]pyrimidin-8(9H)-yl)(4-fluoro-2-((2-methylpiperidin-4-yl)oxy)phenyl)methanone hydrochloride] | 200 to 1000 nM | –
25 | Cc1nc2c3c(nn2c(C)c1Cl)CN(C(=O)c1ccncc1OC1CCN(C)CC1)C3 [Example 3, (3-chloro-2,4-dimethyl-7H-pyrrolo[3′,4′:3,4]pyrazolo[1,5-a]pyrimidin-8(9H)-yl)(3-((1-methylpiperidin-4-yl)oxy)pyridin-4-yl)methanone] | 1000 to 3000 nM | –
26 | Cc1nc2c3c(nn2c(C)c1Cl)CN(C(=O)c1ccccc1C(C)N1CCNCC1)C3 (centres unmarked) [Example 6] | 1000 to 3000 nM | –
